Drawing on patent US10385011B2, “Benzoic acid amide compound” (AMOREPACIFIC CORPORATION, priority 2015, dated 2019), this text covers IC50 for ten compounds.

The subject of the test is Mouse-derived B16F10 melanoma cells. Description: Effect of reducing melanin production in melanocytes (Dooley's method). The note with it: B16-F10, 120 h, medium with compound replaced for three consecutive days, melanin extracted after 5 days, absorbance at 405 nm, read-out: IC50, concentration required to inhibit melanin production in melanocytes to half. In kind it is cell-based. The protocol:
The effect of inhibiting melanin production of the benzoic acid amide derivative compounds prepared in Examples in melanocytes was measured according to the Dooley's method. Mouse-derived B16F10 melanoma cells acquired from the Korean Cell Line Bank were used as cell lines. DMEM (Cat No. 11995), FBS (Cat No. 16000-044), and antibiotic-antifungal agents (Cat No. 15240-062) necessary for cell culturing were purchased from Invitrogen (GIBCO). The cell lines were cultured under the condition of 37° C. and 5% CO2. The cultured B16F10 cells were detached using 0.05% trypsin-EDTA and inoculated onto a 48-well plate with the same cell number (1×10^4 cells/well). From the next day, the culture medium was replaced with one containing 10 ppm of each compound of Examples for three consecutive days. […] After 5 days, melanin was melted and extracted from the cells by treating with 1 N NaOH at 60° C. for 2 hours, which was quantitated by measuring absorbance at 405 nm. The concentrations (IC50) of Examples required to inhibit melanin production in melanocytes to half were calculated and are given in the following Table 1.
Regarding `COc1cc(OC)c(-c2ccc(F)cc2)cc1C(=O)NCc1ccc(O)cc1O` [Example 6, N-(2,4-dihydroxy-benzyl)-2,4-dimethoxy-5-(4-fluoro-phenyl)-benzoic Acid Amide], the IC50 worked out at 700 nM.

As for `COc1cc(OC)c(C(C)(C)C)cc1C(=O)NCc1ccc(O)cc1O` [Example 1, 5-tert-butyl-N-(2,4-dihydroxy-benzyl)-2,4-dimethoxy-benzoic Acid Amide], the IC50 is 2300 nM.

On to `COc1cc(OC)c(C2=CCCCC2)cc1C(=O)NCc1ccc(O)cc1O` [Example 11, 5-cyclohexene-1-yl-N-(2,4-dihydroxy-benzyl)-2,4-dimethoxy-benzoic Acid Amide], for which the IC50 amounted to 900 nM.

On to `COc1cc(OC)c(-c2ccc(F)c(F)c2)cc1C(=O)NCc1ccc(O)cc1O` [Example 9, N-(2,4-dihydroxy-benzyl)-2,4-dimethoxy-5-(3,4-difluoro-phenyl) Benzoic Acid Amide], for which the IC50 came to 600 nM.

For `COc1cc(OC)c(-c2cccc([N+](=O)[O-])c2)cc1C(=O)NCc1ccc(O)cc1O` [Example 10, N-(2,4-dihydroxy-benzyl)-2,4-dimethoxy-5-(3-nitro-phenyl) Benzoic Acid Amide], the IC50 was determined as 1300 nM.

As to `COc1ccc(-c2cc(C(=O)NCc3ccc(O)cc3O)c(OC)cc2OC)cc1` [Example 5, N-(2,4-dihydroxy-benzyl)-2,4-dimethoxy-5-(4-methoxy-phenyl) Benzoic Acid Amide], the IC50 was found to be 700 nM.

In the case of `COc1cc(OC)c(-c2cc(C)cc(C)c2)cc1C(=O)NCc1ccc(O)cc1O` [Example 8, N-(2,4-dihydroxy-benzyl)-2,4-dimethoxy-5-(3,5-dimethyl-phenyl) Benzoic Acid Amide], the IC50 was 1500 nM.

Regarding `COc1cc(OC)c(C2CCCCC2)cc1C(=O)NCc1ccc(O)cc1O` [Example 12, 5-cyclohexyl-N-(2,4-dihydroxy-benzyl)-2,4-dimethoxy-benzoic Acid Amide], the IC50 worked out at 2100 nM.

Take `CCCCc1ccc(O)cc1O` [Rucinol, reference compound]: the IC50 came out at 800 nM.

As to `COc1cc(OC)c(-c2ccc3c(c2)OCO3)cc1C(=O)NCc1ccc(O)cc1O` [Example 7, 5-benzo[1,3]dioxol-5-yl-N-(2,4-dihydroxy-benzyl)-2,4-dimethoxy-benzoic Acid Amide], the IC50 was 700 nM.
